Test results taken from patent publication US20050202467A1, “Novel spliced 5-HT1A receptors and methods, kits, and uses relating thereto” (Philadelphia Health and Education Corporation (d/b/a MCP …, priority 2003, published 2005).

Legend:
[1] = system: neoplastic B and T cell lines; test: inhibition of activation of neoplastic B and T cell lines; assay type: cell-based
Source text: Each of the tested compounds has a high affinity for the 5-HT1A receptor and was expected to inhibit the receptor's activity equally well.

primary T cells = test: response of mitogen (PHA) stimulated T-cells to selective 5-HT1A inhibitors; assay type: cell-based; settings: mitogen (PHA) stimulated T cell cultures, at the concentrations tested (FIG. 2)

| Compound | inhibition of the activation of neoplastic B and T cell lines [1] | inhibition of the activation of primary T cells (primary T cells) |
| --- | --- | --- |
| COc1ccccc1N1CCN(CCCCN2C(=O)c3ccccc3C2=O)CC1 [NAN-190] | reproducibly inhibited | reproducibly inhibited |
| COc1ccccc1N1CCN(CCN(C(=O)c2ccc(F)cc2)c2ccccn2)CC1 [p-MPPF] | – | little or no effects |
| WAY-100635 | – | little or no effects |
